Reference: patent publication US10681909B2, “Herbicidal triazoles” (FMC Corporation, priority 2014, dated 2020)

Key:
wheat (winter wheat) = assay: Test C preemergence; type: in vivo, Triticum aestivum; details: for Wheat plant response rating (0 to 100): Preemergence, visual rating after 13 to 15 d; for Plant response rating (scale of 0 to 100 where 0 is no effect and 100 is complete control): Wheat, preemergence, 250 g ai/ha
Summary of the method: (§1)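 Plants are treated postemergence at the 1- to 4-leaf stage (2 to 18 cm), grown in sphagnum peat/vermiculite medium; preemergence treatment is applied to seed planted in loam soil with sand. Both use test chemical in a non-phytotoxic solvent mixture with surfactant.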

corn = assay: Test C preemergence; type: in vivo, Zea mays; details: for Plant response rating (scale of 0 to 100 where 0 is no effect and 100 is complete control): Corn, preemergence; for Corn plant response rating (0 to 100): Preemergence, visual rating after 13 to 15 d
Summary of the method: as §1

morningglory = assay: Test C preemergence; type: in vivo, Ipomoea coccinea; details: for Plant response rating (scale of 0 to 100 where 0 is no effect and 100 is complete control): Morningglory, preemergence; for Morningglory plant response rating (0 to 100): Preemergence, visual rating after 13 to 15 d
Summary of the method: as §1

barnyardgrass = assay: Test C preemergence; type: in vivo, Echinochloa crus-galli; details: for Plant response rating (scale of 0 to 100 where 0 is no effect and 100 is complete control): Barnyardgrass, preemergence; for Barnyardgrass plant response rating (0 to 100): Preemergence, visual rating after 13 to 15 d
Summary of the method: as §1

oilseed rape = assay: Test C preemergence; type: in vivo, Brassica napus; details: for Plant response rating (scale of 0 to 100 where 0 is no effect and 100 is complete control): Oilseed Rape, preemergence; for Oilseed Rape plant response rating (0 to 100): Preemergence, visual rating after 13 to 15 d
Summary of the method: as §1

bluegrass = assay: Test D preemergence; type: in vivo, Poa annua; details: for Plant response rating (0 to 100), Bluegrass: 16 g ai/ha, 0 is no effect, 100 is complete control; for Plant response rating: Bluegrass: scale 0 to 100
Source text: (§2) Seeds of plant species selected from bluegrass (annual bluegrass, Poa annua), blackgrass (Alopecurus myosuroides), canarygrass (Phalaris minor), chickweed (common chickweed, Stellaria media), galium (catchweed bedstraw, Galium aparine), bromegrass, down (downy bromegrass, Bromus tectorum), Russian thistle (Salsola kali), field poppy (Papaver rhoeas), field violet (Viola arvensis), foxtail, green (green foxtail, Setaria viridis), deadnettle (henbit deadnettle, Lamium amplexicaule), ryegrass, Ital. (Italian ryegrass, Lolium multiflorum), kochia (Kochia scoparia), lambsquarters (Chenopodium album), oilseed rape (Brassica napus), pigweed (Amaranthus retroflexus), chamomile (scentless chamomile, Matricaria inodora), speedwell (bird's-eye speedwell, Veronica persica), barley, spring (spring barley, Hordeum vulgare), wheat, spring (spring wheat, Triticum aestivum), buckwheat, wild (wild buckwheat, Polygonum convolvulus), wild mustard (Sinapis arvensis), oat, wild (wild oat, Avena fatua), radish, wild (wild radish, Raphanus raphanistrum), […]), barley, winter (winter barley, Hordeum vulgare), and wheat, winter (winter wheat, Triticum aestivum) were planted into a silt loam soil and treated preemergence with test chemicals formulated in a non-phytotoxic solvent mixture which included a surfactant. At the same time, these species were planted in pots containing Sunshine Redi-Earth® planting medium comprising spaghnum peat moss, vermiculite, starter nutrients and dolomitic limestone and treated with postemergence applications of the test chemicals formulated in the same manner. Plants ranged in height from 2 to 18 cm (1- to 4-leaf stage). Treated plants and controls were maintained in a controlled growth environment for 14 to 21 d after which time all species were compared to controls and visually evaluated. […] A dash (-) response means no test result.

Russian thistle = assay: Test D preemergence; type: in vivo, Salsola kali; details: for Plant response rating (0 to 100), Russian Thistle: 16 g ai/ha, 0 is no effect, 100 is complete control; for Plant response rating: Russian Thistle: scale 0 to 100
Source text: as §2

field violet = assay: Test D preemergence; type: in vivo, Viola arvensis; details: for Plant response rating (0 to 100), Field Violet: 16 g ai/ha, 0 is no effect, 100 is complete control; for Plant response rating: Field Violet: scale 0 to 100
Source text: as §2

foxtail, green = assay: Test D preemergence; type: in vivo, Setaria viridis; details: for Plant response rating (0 to 100), Foxtail, Green: 16 g ai/ha, 0 is no effect, 100 is complete control; for Plant response rating: Foxtail, Green: scale 0 to 100
Source text: as §2

kochia = assay: Test D preemergence; type: in vivo, Kochia scoparia; details: for Plant response rating (0 to 100), Kochia: 16 g ai/ha, 0 is no effect, 100 is complete control; for Plant response rating: Kochia: scale 0 to 100
Source text: as §2

Structure (SMILES) | Wheat plant response rating (0 to 100) (wheat (winter wheat); 31 g ai/ha) | Wheat plant response rating (0 to 100) (wheat (winter wheat); 62 g ai/ha) | Plant response rating (scale of 0 to 100 where 0 is no effect and 100 is complete control) (wheat (winter wheat)) | Plant response rating (scale of 0 to 100 where 0 is no effect and 100 is complete control) (corn; 125 g ai/ha) | Plant response rating (scale of 0 to 100 where 0 is no effect and 100 is complete control) (corn; 250 g ai/ha) | Corn plant response rating (0 to 100) (corn; 31 g ai/ha) | Corn plant response rating (0 to 100) (corn; 62 g ai/ha) | Plant response rating (scale of 0 to 100 where 0 is no effect and 100 is complete control) (morningglory; 125 g ai/ha) | Plant response rating (scale of 0 to 100 where 0 is no effect and 100 is complete control) (morningglory; 250 g ai/ha) | Morningglory plant response rating (0 to 100) (morningglory; 31 g ai/ha) | Morningglory plant response rating (0 to 100) (morningglory; 62 g ai/ha) | Plant response rating (scale of 0 to 100 where 0 is no effect and 100 is complete control) (barnyardgrass; 125 g ai/ha) | Plant response rating (scale of 0 to 100 where 0 is no effect and 100 is complete control) (barnyardgrass; 250 g ai/ha) | Barnyardgrass plant response rating (0 to 100) (barnyardgrass; 31 g ai/ha) | Barnyardgrass plant response rating (0 to 100) (barnyardgrass; 62 g ai/ha) | Plant response rating (scale of 0 to 100 where 0 is no effect and 100 is complete control) (oilseed rape; 125 g ai/ha) | Plant response rating (scale of 0 to 100 where 0 is no effect and 100 is complete control) (oilseed rape; 250 g ai/ha) | Oilseed Rape plant response rating (0 to 100) (oilseed rape; 31 g ai/ha) | Oilseed Rape plant response rating (0 to 100) (oilseed rape; 62 g ai/ha) | Plant response rating (0 to 100), Bluegrass (bluegrass) | also measured
Fc1ccc(-c2nc(OCC(F)(F)F)n(Cc3ccnc(C(F)(F)F)c3)n2)cc1 [Compound 30] | 0 | 0 | 35 | 30 | 35 | 5 | 15 | 60 | 90 | 35 | 35 | 85 | 98 | 40 | 85 | 100 | 100 | 80 | 80 | 75 | Plant response rating: Bluegrass (bluegrass; 31 g ai/ha): 75; Plant response rating: Bluegrass (bluegrass; 62 g ai/ha): 100; Plant response rating: Bluegrass (bluegrass; 125 g ai/ha): 100; Plant response rating (0 to 100), Russian Thistle (Russian thistle): 80; Plant response rating: Russian Thistle (Russian thistle; 62 g ai/ha): 90; Plant response rating: Russian Thistle (Russian thistle; 125 g ai/ha): 90; Plant response rating (0 to 100), Field Violet (field violet): 100; Plant response rating: Field Violet (field violet; 62 g ai/ha): 100; Plant response rating: Field Violet (field violet; 125 g ai/ha): 100; Plant response rating (0 to 100), Foxtail, Green (foxtail, green): 85; Plant response rating: Foxtail, Green (foxtail, green; 62 g ai/ha): 100; Plant response rating: Foxtail, Green (foxtail, green; 125 g ai/ha): 100; Plant response rating (0 to 100), Kochia (kochia): 85; Plant response rating: Kochia (kochia; 62 g ai/ha): 90; Plant response rating: Kochia (kochia; 125 g ai/ha): 95
FC(F)(F)COc1nc(-c2ccc(Cl)cc2)nn1Cc1ccnc(C(F)(F)F)c1 [Compound 31] | 0 | 5 | 35 | 20 | 25 | 0 | 0 | 55 | 65 | 25 | 45 | 90 | 95 | 70 | 80 | 45 | 85 | 10 | 20 | 55 | Plant response rating: Bluegrass (bluegrass; 31 g ai/ha): 65; Plant response rating: Bluegrass (bluegrass; 62 g ai/ha): 95; Plant response rating: Bluegrass (bluegrass; 125 g ai/ha): 100; Plant response rating (0 to 100), Russian Thistle (Russian thistle): 70; Plant response rating: Russian Thistle (Russian thistle; 62 g ai/ha): 85; Plant response rating: Russian Thistle (Russian thistle; 125 g ai/ha): 90; Plant response rating (0 to 100), Field Violet (field violet): 95; Plant response rating: Field Violet (field violet; 62 g ai/ha): 100; Plant response rating: Field Violet (field violet; 125 g ai/ha): 100; Plant response rating (0 to 100), Foxtail, Green (foxtail, green): 95; Plant response rating: Foxtail, Green (foxtail, green; 62 g ai/ha): 100; Plant response rating: Foxtail, Green (foxtail, green; 125 g ai/ha): 100; Plant response rating (0 to 100), Kochia (kochia): 80; Plant response rating: Kochia (kochia; 62 g ai/ha): 90; Plant response rating: Kochia (kochia; 125 g ai/ha): 95
CCOc1nc(-c2ccc(C(F)(F)F)cc2)nn1Cc1ccnc(C(F)(F)F)c1 [Compound 35, 4-[[5-ethoxy-3-[4-(trifluoromethyl)phenyl]-1H-1,2,4-triazole-1-yl]methyl]-2-(trifluoromethyl)pyridine] | 5 | 5 | 35 | 35 | 45 | 5 | 15 | 80 | 90 | 70 | 60 | 98 | 100 | 85 | 90 | 90 | 90 | 80 | 75 | 70 | Plant response rating: Bluegrass (bluegrass; 31 g ai/ha): 80; Plant response rating: Bluegrass (bluegrass; 62 g ai/ha): 95; Plant response rating: Bluegrass (bluegrass; 125 g ai/ha): 100; Plant response rating (0 to 100), Russian Thistle (Russian thistle): 70; Plant response rating: Russian Thistle (Russian thistle; 62 g ai/ha): 80; Plant response rating: Russian Thistle (Russian thistle; 125 g ai/ha): 85; Plant response rating (0 to 100), Field Violet (field violet): 95; Plant response rating: Field Violet (field violet; 62 g ai/ha): 100; Plant response rating: Field Violet (field violet; 125 g ai/ha): 100; Plant response rating (0 to 100), Foxtail, Green (foxtail, green): 70; Plant response rating: Foxtail, Green (foxtail, green; 62 g ai/ha): 100; Plant response rating: Foxtail, Green (foxtail, green; 125 g ai/ha): 100; Plant response rating (0 to 100), Kochia (kochia): 90; Plant response rating: Kochia (kochia; 62 g ai/ha): 90; Plant response rating: Kochia (kochia; 125 g ai/ha): 90
